Measured values published in US7446102B2, “Antibacterial amide macrocycles IV” (priority 2004, dated 2008).
Where a name gives a salt, the structure may show the parent alone. Read-outs that look alike come from different tables or passages of the source.

Tests used:
[1] = tested on: S. aureus T17; assay: Determination of the minimum inhibitory concentration (MIC), biphenomycin-resistant S. aureus T17; type: cell-based; conditions: Staphylococcus aureus
Description: Determination of the Minimum Inhibitory Concentration (MIC)
The minimum inhibitory concentration (MIC) is the minimum concentration of an antibiotic with which the growth of a test microbe is inhibited over 18-24 h. The inhibitor concentration can in these cases be determined by standard microbiological methods (see, for example, The National Committee for Clinical Laboratory Standards. Methods for dilution antimicrobial susceptibility tests for bacteria that grow aerobically; approved standard-fifth edition. NCCLS document M7-A5 [ISBN 1-56238-394-9]. NCCLS, 940 West Valley Road, Suite 1400, Wayne, Pa. 19087-1898 USA, 2000). The MIC of the compounds of the invention is determined in the liquid dilution test on the 96-well microtitre plate scale. The bacterial microbes are cultivated in a minimal medium (18.5 mM Na2HPO4, 5.7 mM KH2PO4, 9.3 mM NH4Cl, 2.8 mM MgSO4, 17.1 mM NaCl, 0.033 μg/ml thiamine hydrochloride, 1.2 μg/ml nicotinic acid, 0.003 μg/ml biotin, 1% glucose, 25 μg/ml of each proteinogenic amino acid with the exception of phenylalanine; [H.-P. Kroll; unpublished]) with the addition of 0.4% BH broth (test medium). In the case of Enterococcus facium L4001, heat-inactivated fetal calf serum (FCS; GibcoBRL, Germany) is added to the test medium in a final concentration of 10%. Overnight cultures of the test microbes are diluted to an OD578 of 0.001 (to 0.01 in the case of enterococci) in fresh test medium, and incubated 1:1 with dilutions of the test substances (1:2 dilution steps) in test medium (200 μl final volume). The cultures are incubated at 37° C. for 18-24 hours; enterococci in the presence of 5% CO2.
The lowest substance concentration in each case at which no visible bacterial growth occurred any more is defined as the MIC.
Alternative Method for Determining the Minimum Inhibitory Concentration (MIC)
The minimum inhibitory concentration (MIC) is the minimum concentration of an antibiotic with which the growth of a test microbe is inhibited over 18-24 h. The inhibitor concentration can in these cases be determined by standard microbiological methods with modified medium in an agar dilution test (see, for example, The National Committee for Clinical Laboratory Standards. Methods for dilution antimicrobial susceptibility tests for bacteria that grow aerobically; approved standard-fifth edition. NCCLS document M7-A5 [ISBN 1-56238-394-9]. NCCLS, 940 West Valley Road, Suite 1400, Wayne, Pa. 19087-1898 USA, 2000). The bacterial microbes are cultivated on 1.5% agar plates which contain 20% defibrinated horse blood. The test microbes, which are incubated overnight on Columbia blood agar plates (Becton-Dickinson), are diluted in PBS, adjusted to a microbe count of about […] and placed dropwise (1-3 μl) on test plates. The test substances comprise different dilutions of the test substances (1:2 dilution steps). The cultures are incubated at 37° C. in the presence of 5% CO2 for 18-24 hours.
The lowest substance concentration in each case at which no visible bacterial growth occurred any more is defined as the MIC and is reported in μg/ml.
The S. aureus strain T17 is isolated in vivo. CFW1 mice are infected intraperitoneally with 4×10^7 S. aureus 133 cells per mouse. 0.5 h after the infection, the animals are treated intravenously with 50 mg/kg biphenomycin B. The kidneys are removed from the surviving animals on day 3 after the infection. After homogenization of the organs, the homogenates are plated out as described for RN4220Bi^R on antibiotics-free and antibiotics-containing agar plates and incubated at 37° C. overnight. […] About 20 of these colonies are tested for the biphenomycin B MIC, and a colony with an MIC of >50 μM is selected for further cultivation, and the strain is referred to as T17.

[2] = tested on: S. aureus RN4220; assay: Isolation of biphenomycin-resistant strain from S. aureus RN4220: resistance rate on biphenomycin B agar; type: cell-based; conditions: S. aureus RN4220 on agar plate containing 2 μg/ml biphenomycin B (10×MIC), 37° C. overnight
Description: Isolation of the Biphenomycin-Resistant S. aureus Strains RN4220Bi^R and T17
The S. aureus strain RN4220Bi^R is isolated in vitro. For this purpose, 100 μl portions of an S. aureus RN4220 cell suspension (about 1.2×10^8 cfu/ml) are plated out on an antibiotics-free agar plate (18.5 mM Na2HPO4, 5.7 mM KH2PO4, 9.3 mM NH4Cl, 2.8 mM MgSO4, 17.1 mM NaCl, 0.033 μg/ml thiamine hydrochloride, 1.2 μg/ml nicotinic acid, 0.003 μg/ml biotin, 1% glucose, 25 μg/ml of each proteinogenic amino acid with the addition of 0.4% BH broth and 1% agarose) and on an agar plate containing 2 μg/ml biphenomycin B (10×MIC), and incubated at 37° C. overnight. Whereas about 1×10^7 cells grow on the antibiotics-free plate, about 100 colonies grow on the antibiotics-containing plate, corresponding to a resistance rate of 1×10^−5. Some of the colonies grown on the antibiotics-containing plate are tested for the biphenomycin B MIC. One colony with an MIC of >50 μM is selected for further use, and the strain is referred to as RN4220Bi^R.

With `NC[C@H](O)C[C@@H]1NC(=O)[C@@H](N)Cc2cc(ccc2O)-c2ccc(O)c(c2)C[C@@H](C(=O)O)NC1=O` [Example 20A, 14(S)-Amino-11(S)-(3-amino-2(R)-hydroxypropyl)-5,17-dihydroxy-10,13-dioxo-9,12-diazatricyclo[14.3.1.1^2,6]henicosa-1(19),2,4,6(21),16(20),17-hexaene-8(S)-carboxylic acid dihydrochloride, reference compound] the MIC ([1]; biphenomycin-resistant strain, no visible bacterial growth, 18-24 h, 37° C., read-out: MIC S. aureus T17) was greater than 32 µg/mL, the MIC ([1]; colony isolated from kidney of mice treated with 50 mg/kg biphenomycin B, read-out: MIC, selected colony (strain T17)) was greater than 50 µM and the resistance rate [2] was 1×10^−5.
